A word on the IC50: it is the concentration that inhibits the measured activity by half. A low value points to greater potency.

Structures are written as SMILES.

The experiment has as its target farnesyl pyrophosphate synthase (Trypanosoma cruzi). Briefly: Inhibitory concentration against Trypanosoma cruzi farnesyl pyrophosphate synthase (TcFPPS).
`CCC(N)(P(=O)(O)O)P(=O)(O)O` [(1-Amino-1-phosphono-propyl)-phosphonic acid] registered an IC50 of 150 µM.
`CC(N)(P(=O)(O)O)P(=O)(O)O` [(1-Amino-1-phosphono-ethyl)-phosphonic acid]: half-maximal inhibition (IC50) was put at 66.7 µM.
The value for `CCCCCCC(N)(P(=O)(O)O)P(=O)(O)O` [(1-Amino-1-phosphono-heptyl)-phosphonic acid] was 3.57 µM; that for `CCCC(N)(P(=O)(O)O)P(=O)(O)O` [(1-Amino-1-phosphono-butyl)-phosphonic acid] was 30.8 µM.
As for `CCCCCC(N)(P(=O)(O)O)P(=O)(O)O` [(1-Amino-1-phosphono-hexyl)-phosphonic acid], the 50% inhibitory concentration (IC50) came out at 0.382 µM.
The value for `CCCCC(N)(P(=O)(O)O)P(=O)(O)O` [(1-Amino-1-phosphono-pentyl)-phosphonic acid] was 3.91 µM.

(Values after BindingDB's records for doi:10.1016/j.bmcl.2005.07.060 (Universidad De Buenos Aires, 2005).)
